# Data published in ChEMBL document CHEMBL5321248, “Syntheses and antitumor activities of neorautenol and shinpterocarpin analogs” (Bioorg Med Chem Lett, 2023).
# Test system: NCI-H460
# Test: Antitumor activity against human NCI-H460 cells assessed as inhibition of cell growth by MTT assay
# Assay type: functional, cell-based
# Conditions: not given
row,SMILES,IC50
1,CC1(C)C=Cc2cc3c(cc2O1)OC[C@H]1c2ccc([N+](=O)[O-])cc2O[C@@H]31,> 10 µM
2,COc1ccc2c(c1)O[C@H]1c3cc4c(cc3OC[C@@H]21)OC(C)(C)C=C4,> 10 µM
3,COCCOc1ccc2c(c1)O[C@H]1c3cc4c(cc3OC[C@@H]21)OC(C)(C)C=C4,> 10 µM
4,CC1(C)C=Cc2c(ccc3c2OC[C@H]2c4ccc(OCCN5CCNCC5)cc4O[C@@H]32)O1,> 10 µM
5,CC1(C)C=Cc2c(ccc3c2OC[C@H]2c4ccc(N)cc4O[C@@H]32)O1,> 10 µM
6,COCCOc1ccc2c(c1)O[C@H]1c3ccc4c(c3OC[C@@H]21)C=CC(C)(C)O4,> 10 µM
7,CC1(C)C=Cc2cc3c(cc2O1)OC[C@H]1c2ccc(OCCN4CCOCC4)cc2O[C@@H]31,> 10 µM

# The remaining lines, values ahead:
row,IC50,SMILES
1,> 10 µM,CC(=O)Nc1ccc2c(c1)O[C@H]1c3ccc4c(c3OC[C@@H]21)C=CC(C)(C)O4
2,> 10 µM,C#CC(C)(C)Oc1ccc2c(c1)OC[C@H]1c3ccc(O)cc3O[C@@H]21
3,5.7 µM,CN(C)CCOc1ccc2c(c1)O[C@H]1c3ccc4c(c3OC[C@@H]21)C=CC(C)(C)O4
4,24.2 µM,CC1(C)C=Cc2cc3c(cc2O1)OC[C@H]1c2ccc(O)cc2O[C@@H]31 [NEORAUTENOL]
5,28 µM,CC1(C)C=Cc2c(ccc3c2OC[C@H]2c4ccc(O)cc4O[C@@H]32)O1 [SHINPTEROCARPIN]

# Test system: MDA-MB-231
# Test: Antitumor activity against human MDA-MB-231 cells assessed as inhibition of cell growth by MTT assay
# Assay type: functional, cell-based
# Conditions: not given
row,SMILES,IC50
1,CC1(C)C=Cc2cc3c(cc2O1)OC[C@H]1c2ccc([N+](=O)[O-])cc2O[C@@H]31,> 10 µM
2,COc1ccc2c(c1)O[C@H]1c3cc4c(cc3OC[C@@H]21)OC(C)(C)C=C4,> 10 µM
3,COCCOc1ccc2c(c1)O[C@H]1c3cc4c(cc3OC[C@@H]21)OC(C)(C)C=C4,> 10 µM
4,CC1(C)C=Cc2c(ccc3c2OC[C@H]2c4ccc(OCCN5CCNCC5)cc4O[C@@H]32)O1,> 10 µM
5,CC1(C)C=Cc2c(ccc3c2OC[C@H]2c4ccc(N)cc4O[C@@H]32)O1,> 10 µM
6,COCCOc1ccc2c(c1)O[C@H]1c3ccc4c(c3OC[C@@H]21)C=CC(C)(C)O4,> 10 µM
7,CC1(C)C=Cc2cc3c(cc2O1)OC[C@H]1c2ccc(OCCN4CCOCC4)cc2O[C@@H]31,> 10 µM

# Now from value to compound:
row,IC50,SMILES
1,> 10 µM,CC(=O)Nc1ccc2c(c1)O[C@H]1c3ccc4c(c3OC[C@@H]21)C=CC(C)(C)O4
2,> 10 µM,C#CC(C)(C)Oc1ccc2c(c1)OC[C@H]1c3ccc(O)cc3O[C@@H]21
3,> 10 µM,CN(C)CCOc1ccc2c(c1)O[C@H]1c3ccc4c(c3OC[C@@H]21)C=CC(C)(C)O4
4,53.1 µM,CC1(C)C=Cc2cc3c(cc2O1)OC[C@H]1c2ccc(O)cc2O[C@@H]31 [NEORAUTENOL]
5,52.8 µM,CC1(C)C=Cc2c(ccc3c2OC[C@H]2c4ccc(O)cc4O[C@@H]32)O1 [SHINPTEROCARPIN]

# Test system: NCI-H1299
# Test: Antitumor activity against human NCI-H1299 cells assessed as inhibition of cell growth by MTT assay
# Assay type: functional, cell-based
# Conditions: not given
row,SMILES,IC50
1,CC1(C)C=Cc2cc3c(cc2O1)OC[C@H]1c2ccc([N+](=O)[O-])cc2O[C@@H]31,> 10 µM
2,COc1ccc2c(c1)O[C@H]1c3cc4c(cc3OC[C@@H]21)OC(C)(C)C=C4,> 10 µM
3,COCCOc1ccc2c(c1)O[C@H]1c3cc4c(cc3OC[C@@H]21)OC(C)(C)C=C4,> 10 µM
4,CC1(C)C=Cc2c(ccc3c2OC[C@H]2c4ccc(OCCN5CCNCC5)cc4O[C@@H]32)O1,> 10 µM
5,CC1(C)C=Cc2c(ccc3c2OC[C@H]2c4ccc(N)cc4O[C@@H]32)O1,> 10 µM
6,COCCOc1ccc2c(c1)O[C@H]1c3ccc4c(c3OC[C@@H]21)C=CC(C)(C)O4,> 10 µM
7,CC1(C)C=Cc2cc3c(cc2O1)OC[C@H]1c2ccc(OCCN4CCOCC4)cc2O[C@@H]31,> 10 µM

# The next lines start with the values.
row,IC50,SMILES
1,> 10 µM,CC(=O)Nc1ccc2c(c1)O[C@H]1c3ccc4c(c3OC[C@@H]21)C=CC(C)(C)O4
2,> 10 µM,C#CC(C)(C)Oc1ccc2c(c1)OC[C@H]1c3ccc(O)cc3O[C@@H]21
3,9.6 µM,CN(C)CCOc1ccc2c(c1)O[C@H]1c3ccc4c(c3OC[C@@H]21)C=CC(C)(C)O4
4,15 µM,CC1(C)C=Cc2cc3c(cc2O1)OC[C@H]1c2ccc(O)cc2O[C@@H]31 [NEORAUTENOL]
5,18.3 µM,CC1(C)C=Cc2c(ccc3c2OC[C@H]2c4ccc(O)cc4O[C@@H]32)O1 [SHINPTEROCARPIN]

# Test system: Hep 3B2
# Test: Antitumor activity against human Hep3B cells assessed as inhibition of cell growth by MTT assay
# Assay type: functional, cell-based
# Conditions: not given
row,SMILES,IC50
1,CC(=O)Nc1ccc2c(c1)O[C@H]1c3ccc4c(c3OC[C@@H]21)C=CC(C)(C)O4,> 10 µM
2,C#CC(C)(C)Oc1ccc2c(c1)OC[C@H]1c3ccc(O)cc3O[C@@H]21,> 10 µM
3,CN(C)CCOc1ccc2c(c1)O[C@H]1c3ccc4c(c3OC[C@@H]21)C=CC(C)(C)O4,> 10 µM
4,CC1(C)C=Cc2cc3c(cc2O1)OC[C@H]1c2ccc([N+](=O)[O-])cc2O[C@@H]31,> 10 µM
5,COc1ccc2c(c1)O[C@H]1c3cc4c(cc3OC[C@@H]21)OC(C)(C)C=C4,> 10 µM
6,COCCOc1ccc2c(c1)O[C@H]1c3cc4c(cc3OC[C@@H]21)OC(C)(C)C=C4,> 10 µM
7,CC1(C)C=Cc2c(ccc3c2OC[C@H]2c4ccc(OCCN5CCNCC5)cc4O[C@@H]32)O1,> 10 µM
8,CC1(C)C=Cc2c(ccc3c2OC[C@H]2c4ccc(N)cc4O[C@@H]32)O1,> 10 µM
9,COCCOc1ccc2c(c1)O[C@H]1c3ccc4c(c3OC[C@@H]21)C=CC(C)(C)O4,> 10 µM
10,CC1(C)C=Cc2cc3c(cc2O1)OC[C@H]1c2ccc(OCCN4CCOCC4)cc2O[C@@H]31,> 10 µM
11,CC1(C)C=Cc2cc3c(cc2O1)OC[C@H]1c2ccc(O)cc2O[C@@H]31 [NEORAUTENOL],28.5 µM
12,CC1(C)C=Cc2c(ccc3c2OC[C@H]2c4ccc(O)cc4O[C@@H]32)O1 [SHINPTEROCARPIN],30.4 µM

# Test system: not listed separately
# Test: Cytotoxicity against human RPE cells assessed as reduction in cell viability at 10 uM relative to control
# Assay type: toxicity, cell-based
# Conditions: not given
row,SMILES,Activity
1,CN(C)CCOc1ccc2c(c1)O[C@H]1c3ccc4c(c3OC[C@@H]21)C=CC(C)(C)O4,> 70%

# Test system: not listed separately
# Test: Cytotoxicity against human RPE cells assessed as reduction in cell viability at 50 uM relative to control
# Assay type: toxicity, cell-based
# Conditions: not given
row,SMILES,Activity
1,CN(C)CCOc1ccc2c(c1)O[C@H]1c3ccc4c(c3OC[C@@H]21)C=CC(C)(C)O4,Non-Toxic

# Test system: HT-22
# Test: Cytotoxicity against mouse HT-22 cells assessed as reduction in cell viability at 50 uM relative to control
# Assay type: toxicity, cell-based
# Conditions: ht-22, 50 µM
row,SMILES,Activity
1,CN(C)CCOc1ccc2c(c1)O[C@H]1c3ccc4c(c3OC[C@@H]21)C=CC(C)(C)O4,Toxic

# Test system: A549
# Test: Antitumor activity against human A549 cells assessed as inhibition of cell growth by MTT assay
# Assay type: functional, cell-based
# Conditions: not given
row,SMILES,IC50
1,CC1(C)C=Cc2cc3c(cc2O1)OC[C@H]1c2ccc([N+](=O)[O-])cc2O[C@@H]31,> 10 µM
2,COc1ccc2c(c1)O[C@H]1c3cc4c(cc3OC[C@@H]21)OC(C)(C)C=C4,> 10 µM
3,COCCOc1ccc2c(c1)O[C@H]1c3cc4c(cc3OC[C@@H]21)OC(C)(C)C=C4,> 10 µM
4,CC1(C)C=Cc2c(ccc3c2OC[C@H]2c4ccc(OCCN5CCNCC5)cc4O[C@@H]32)O1,> 10 µM
5,CC1(C)C=Cc2c(ccc3c2OC[C@H]2c4ccc(N)cc4O[C@@H]32)O1,> 10 µM
6,COCCOc1ccc2c(c1)O[C@H]1c3ccc4c(c3OC[C@@H]21)C=CC(C)(C)O4,> 10 µM
7,CC1(C)C=Cc2cc3c(cc2O1)OC[C@H]1c2ccc(OCCN4CCOCC4)cc2O[C@@H]31,> 10 µM

# Second part, the compound after the results:
row,IC50,SMILES
1,> 10 µM,CC(=O)Nc1ccc2c(c1)O[C@H]1c3ccc4c(c3OC[C@@H]21)C=CC(C)(C)O4
2,> 10 µM,C#CC(C)(C)Oc1ccc2c(c1)OC[C@H]1c3ccc(O)cc3O[C@@H]21
3,8.1 µM,CN(C)CCOc1ccc2c(c1)O[C@H]1c3ccc4c(c3OC[C@@H]21)C=CC(C)(C)O4
4,24.6 µM,CC1(C)C=Cc2cc3c(cc2O1)OC[C@H]1c2ccc(O)cc2O[C@@H]31 [NEORAUTENOL]
5,21.6 µM,CC1(C)C=Cc2c(ccc3c2OC[C@H]2c4ccc(O)cc4O[C@@H]32)O1 [SHINPTEROCARPIN]

# Test system: HCT-116
# Test: Antitumor activity against human HCT-116 cells assessed as inhibition of cell growth by MTT assay
# Assay type: functional, cell-based
# Conditions: not given
row,SMILES,IC50
1,CC1(C)C=Cc2cc3c(cc2O1)OC[C@H]1c2ccc([N+](=O)[O-])cc2O[C@@H]31,> 10 µM
2,COc1ccc2c(c1)O[C@H]1c3cc4c(cc3OC[C@@H]21)OC(C)(C)C=C4,> 10 µM
3,COCCOc1ccc2c(c1)O[C@H]1c3cc4c(cc3OC[C@@H]21)OC(C)(C)C=C4,> 10 µM
4,CC1(C)C=Cc2c(ccc3c2OC[C@H]2c4ccc(OCCN5CCNCC5)cc4O[C@@H]32)O1,> 10 µM
5,CC1(C)C=Cc2c(ccc3c2OC[C@H]2c4ccc(N)cc4O[C@@H]32)O1,> 10 µM
6,COCCOc1ccc2c(c1)O[C@H]1c3ccc4c(c3OC[C@@H]21)C=CC(C)(C)O4,> 10 µM
7,CC1(C)C=Cc2cc3c(cc2O1)OC[C@H]1c2ccc(OCCN4CCOCC4)cc2O[C@@H]31,> 10 µM

# Now from value to compound:
row,IC50,SMILES
1,> 10 µM,CC(=O)Nc1ccc2c(c1)O[C@H]1c3ccc4c(c3OC[C@@H]21)C=CC(C)(C)O4
2,> 10 µM,C#CC(C)(C)Oc1ccc2c(c1)OC[C@H]1c3ccc(O)cc3O[C@@H]21
3,7 µM,CN(C)CCOc1ccc2c(c1)O[C@H]1c3ccc4c(c3OC[C@@H]21)C=CC(C)(C)O4
4,17.4 µM,CC1(C)C=Cc2cc3c(cc2O1)OC[C@H]1c2ccc(O)cc2O[C@@H]31 [NEORAUTENOL]
5,22.4 µM,CC1(C)C=Cc2c(ccc3c2OC[C@H]2c4ccc(O)cc4O[C@@H]32)O1 [SHINPTEROCARPIN]

# Test system: HT-22
# Test: Cytotoxicity against mouse HT-22 cells assessed as reduction in cell viability at 10 uM relative to control
# Assay type: toxicity, cell-based
# Conditions: ht-22, 10 µM
row,SMILES,Activity
1,CN(C)CCOc1ccc2c(c1)O[C@H]1c3ccc4c(c3OC[C@@H]21)C=CC(C)(C)O4,> 70%
